The structures appear in SMILES notation. Where a name gives a salt, the structure may show the parent alone. Some results are limits rather than exact numbers.

In one test the target is T1, recombinant human MMP-1 (Homo sapiens, UniProt P03956).
T1 construct: made in house; host or cells: transfected HT-1080 cells (provided by Dr. Howard Welgus, Washington University)
T1 sequence (P03956 100-469): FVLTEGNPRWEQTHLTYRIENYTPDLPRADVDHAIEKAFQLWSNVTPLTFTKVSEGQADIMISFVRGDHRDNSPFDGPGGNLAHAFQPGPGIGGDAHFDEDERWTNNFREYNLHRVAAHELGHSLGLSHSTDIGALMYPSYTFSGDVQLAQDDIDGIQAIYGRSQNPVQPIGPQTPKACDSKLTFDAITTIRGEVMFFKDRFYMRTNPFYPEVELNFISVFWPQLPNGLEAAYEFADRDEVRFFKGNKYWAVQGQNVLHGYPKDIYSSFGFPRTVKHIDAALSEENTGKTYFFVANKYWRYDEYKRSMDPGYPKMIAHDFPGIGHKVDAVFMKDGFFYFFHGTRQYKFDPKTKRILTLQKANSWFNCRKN
Nature of the test: In vitro metalloprotease inhibition, fluorogenic peptide assay (MMP-1). Conditions: recombinant human MMP-1, APMA activated; fluorogenic MCA peptide substrate 4 uM; pH 7.5, room temperature. The class given is biochemical. The protocol: (§1) Certain of the compounds prepared in the manner described in Examples 1 to 223 were tested for activity by an in vitro assay. Following the procedures of Knight et al., FEBS Lett. 296(3):263 (1992). Briefly, 4-aminophenylmercuric acetate (APMA) or trypsin activated MMPs were incubated with various concentrations of the inhibitor compound at room temperature for 5 minutes (0.02% 2-mercapto-ethanol added to buffer for thiol compounds with 5 minutes or overnight incubation). More specifically, recombinant human MMP-13 and MMP-1 enzymes were prepared in laboratories of the inventors' employer. MMP-13 was expressed in baculovirus as a proenzyme, and purified first over a heparin agarose column and then over a chelating zinc chloride column. The proenzyme was activated by APMA for use in the assay. MMP-1 expressed in transfected HT-1080 was provided by Dr. Howard Welgus of Washington University, St. Louis, Mo. The enzyme was also activated using APMA and was then purified over a hydroxamic acid column.
(§2) The enzyme substrate is a methoxycoumarin-containing polypeptide having the following sequence:
(§3) MCA-ProLeuGlyLeuDpaAlaArgNH^2, wherein MCA is methoxycoumarin and Dpa is 3-(2,4-dinitrophenyl)-L-2,3-diaminopropionyl alanine. This substrate is commercially available from Baychem as product M-1895.
(§4) The buffer used for assays contained 100 mM Tris-HCl, 100 mM NaCl, 10 mM CaCl2 and 0.05 percent polyethyleneglycol(23) lauryl ether at a pH value of 7.5. Assays were carried out at room temperature, and dimethyl sulfoxide (DMSO) at a final concentration of 1 percent was used to dissolve inhibitor compound.
(§5) The assayed inhibitor compound in DMSO/buffer solution was compared to an equal amount of DMSO/buffer with no inhibitor as control using microfluor™ white plates (Dynatech). The inhibitor or control solution was maintained in the plate for 10 minutes and the substrate was added to provide a final concentration of 4 uM.
(§6) In the absence of inhibitor activity, a fluorogenic peptide is cleaved at the gly-leu peptide bond, separating the highly fluorogenic peptide from a 2.4-dinitrophenyl quencher, resulting in an increase of fluorescence intensity (excitation at 328 nm/emmision at 415 nm). Inhibition was measured as a reduction in fluorescent intensity as a function of inhibitor concentration, using a Perkin Elmer L550 plate reader. The IC50 values were calculated from those values. The results are set forth in the Inhibition Table below, reported in terms of IC50 to three significant figures.

Another test deals with T2, recombinant human MMP-13 (Homo sapiens, UniProt P45452).
T2 construct: made in house
The test can be described thus: In vitro metalloprotease inhibition, fluorogenic peptide assay (MMP-13). Type of test: biochemical. The protocol:
as §1, §2, §3, §4, §5, §6

[1] abbreviates: recombinant human MMP-13, APMA activated, fluorogenic MCA peptide substrate 4 uM, pH 7.5, room temperature.

By IC50 is commonly meant the midpoint of a concentration-inhibition curve. As for `C[C@H](CS)N(C)S(=O)(=O)c1ccc(Oc2ccccc2)cc1` [Example 40E, N-(2-Mercapto-1R-methylethyl)-N-methyl-4-(phenoxy)benzenesulfonamide], the IC50 stood at 0.309 µM at recombinant human MMP-1 and 0.61 nM on recombinant human MMP-13 (setting [1]).

For the compound `C[C@H](CS)N(C)S(=O)(=O)c1ccc(Sc2ccccc2)cc1` [Example 41C, N-(2-Mercapto-1R-methylethyl)-N-methyl-4-(thiophenyl)benzenesulfonamide], the IC50 on recombinant human MMP-1 is over 10 µM; at recombinant human MMP-13 (in vitro, recombinant human MMP-13) it was 2 nM; on recombinant human MMP-13 (setting [1]), 1.8 nM.

Consider `C[C@H](CO)N(C)S(=O)(=O)c1ccc(-c2ccccn2)s1` [Example 42D, N-(2-Hydroxy-1R-methylethyl)-N-methyl-2-(pyrid-2-yl)thiophene-5-sulfonamide], for which the half-inhibitory concentration (IC50) at recombinant human MMP-1 is over 10 µM; at recombinant human MMP-13 (setting [1]) it was 1800 nM.

`COc1ccc(S(=O)(=O)N(C)Cc2ccccc2S)cc1` [Example 44, N-[(2-Mercaptophenyl)methyl]-N-methyl-4-methoxybenzenesulfonamide]: the IC50 was over 10 µM at recombinant human MMP-1 and 400 nM at recombinant human MMP-13 (setting [1]).

With `CCCCOc1ccc(S(=O)(=O)N(CCN2CCOCC2)[C@H](C)CS)cc1` [Example 45C, N-(2-Mercapto-1R-methylethyl)-N-[2-(4-morpholino)ethyl]-4-(n-butoxy)benzenesulfonamide], the IC50 at recombinant human MMP-1 was 3.2 µM; at recombinant human MMP-13 (setting [1]), 3 nM.

In the case of `CCCCOc1ccc(S(=O)(=O)N(CCN2CCCCC2)[C@H](C)CS)cc1` [Example 46, N-(2-Mercapto-1R-methylethyl)-N-[2-(1-piperidino)ethyl]-4-(n-butoxy)benzenesulfonamide], the IC50 worked out at 3.5 µM at recombinant human MMP-1 and 4 nM on recombinant human MMP-13 (setting [1]).

Take `CCCCOc1ccc(S(=O)(=O)N(CCN2CCCC2)[C@H](C)CS)cc1` [Example 47C, N-(2-Mercapto-1R-methylethyl)-N-[2-(1-pyrrolidino)ethyl]-4-(n-butoxy)benzenesulfonamide]: the IC50 is 4.83 µM on recombinant human MMP-1 and 4.47 nM at recombinant human MMP-13 (setting [1]).

As for `CCCCCN([C@H](C)CS)S(=O)(=O)c1ccc(OCCCC)cc1` [Example 48C, N-(2-Mercapto-1R-methylethyl)-N-pentyl-4-(n-butoxy)benzenesulfonamide], the IC50 on recombinant human MMP-1 was over 10 µM; at recombinant human MMP-13 (setting [1]), 45 nM.

As to `COc1ccc(S(=O)(=O)N(Cc2cccnc2)[C@H](C)CS)cc1` [Example 49, N-(2-Mercapto-1-R-methylethyl)-N-(3-pyridylmethyl)-4-methoxybenzenesulfonamide], the IC50 was determined as 0.3 µM at recombinant human MMP-1 and 17.5 nM on recombinant human MMP-13 (setting [1]).

For the compound `C[C@H](CS)N(Cc1ccccc1)S(=O)(=O)CCCSc1ccccc1` [Example 51, N-(2-Mercapto-1R-methylethyl)-N-benzyl(3-thiophenylpropyl)sulphonamide], the values for the concentration for half-maximal inhibition (IC50) at recombinant human MMP-1 and on recombinant human MMP-13 (setting [1]) were over 10 µM and 340 nM, respectively.

As to `C[C@H](CS)N(CCN1CCCCC1)S(=O)(=O)CCCSc1ccccc1` [Example 52, N-(2-Mercapto-1R-methylethyl)-N-[2-(1-piperidino)ethyl](3-thiophenylpropyl)sulphonamide], the IC50 at recombinant human MMP-1 was over 10 µM; at recombinant human MMP-13 (setting [1]), 45 nM.

`CCCCCc1ccc(S(=O)(=O)N(C)[C@H](C)CS)cc1` [Example 53, N-(2-Mercapto-1R-methylethyl)-N-methyl-4-(n-pentyl)benzenesulfonamide]: the IC50 was over 10 µM at recombinant human MMP-1 and 11 nM at recombinant human MMP-13 (setting [1]).

Turning to `CCCCCc1ccc(S(=O)(=O)N(CCN2CCOCC2)[C@H](C)CS)cc1` [Example 54, N-(2-Mercapto-1R-methylethyl)-N-[2-(4-morpholino)ethyl]-4-(n-pentyl)benzenesulfonamide], the IC50 is 9 µM on recombinant human MMP-1 and 7 nM on recombinant human MMP-13 (setting [1]).

In the case of `C[C@H](CS)N(C)S(=O)(=O)c1ccc(-c2ccccc2)cc1` [Example 55, N-(2-Mercapto-1R-methylethyl)-N-methyl-4-(phenyl)benzenesulfonamide], the IC50 on recombinant human MMP-1 is 0.313 µM; at recombinant human MMP-13 (setting [1]), 0.71 nM.

As for `COc1ccc(S(=O)(=O)N(Cc2ccccc2)C(CS)Cc2ccccc2)cc1` (centres unmarked) [Example 57, N-(2-Mercapto-1R,S-phenylmethyl)-N-phenylmethyl-4-methoxybenzenesulfonamide], the 50% inhibitory concentration (IC50) on recombinant human MMP-1 was over 10 µM; at recombinant human MMP-13 (setting [1]), 5000 nM.

For the compound `COC(=O)[C@H](CSSC[C@H](NS(=O)(=O)c1ccc(OC)cc1)C(=O)OC)NS(=O)(=O)c1ccc(OC)cc1` [Example 58], the IC50 turned out to be 6 µM at recombinant human MMP-1 and 200 nM at recombinant human MMP-13 (setting [1]).

On to `COC(=O)[C@H](CSSC[C@@H](C(=O)OC)N(C)S(=O)(=O)c1ccc(OC)cc1)N(C)S(=O)(=O)c1ccc(OC)cc1` [Example 59], for which the IC50 at recombinant human MMP-1 turned out to be 1 µM; at recombinant human MMP-13 (setting [1]) it was 13 nM.

In the case of `C[C@H](CS)NS(=O)(=O)c1ccc(F)cc1` [Example 63, N-(2-mercapto-1R-methylethyl)-4-fluorobenzenesulfonamide], the IC50 on recombinant human MMP-1 is 0.3 µM; at recombinant human MMP-13 (setting [1]), 2500 nM.

Take `C[C@H](CS)NS(=O)(=O)c1ccc(Br)cc1` [Example 65, N-(2-mercapto-1R-methylethyl)-4-bromobenzenesulfonamide]: the IC50 at recombinant human MMP-1 is 1 µM; on recombinant human MMP-13 (setting [1]), 445 nM.

Regarding `C[C@H](CS)NS(=O)(=O)c1ccc(OC(F)(F)F)cc1` [Example 75, N-(2-mercapto-1R-methylethyl)-4-(trifluoromethoxy)-benzenesulfonamide], the figures for the IC50 on recombinant human MMP-1 and on recombinant human MMP-13 (setting [1]) were 5 µM and 1000 nM, respectively.

Consider `C[C@H](CS)NS(=O)(=O)c1ccc(C#N)cc1` [Example 76, N-(2-mercapto-1R-methylethyl)-4-cyanobenzenesulfonamide], for which the figures for the IC50 on recombinant human MMP-1 and on recombinant human MMP-13 (setting [1]) were 3.5 µM and 8800 nM, respectively.

Regarding `C[C@H](CS)NS(=O)(=O)c1ccccc1` [Example 82, N-(2-mercapto-1R-methylethyl)-benzenesulfonamide], the figures for the IC50 at recombinant human MMP-1 and on recombinant human MMP-13 (setting [1]) were over 10 µM and 1200 nM, respectively.

In the case of `CC(=O)Nc1ccc(S(=O)(=O)N[C@H](C)CS)cc1` [Example 84, N-(2-mercapto-1R-methylethyl)-4-N-acetylsulfanilamide], the IC50 is over 10 µM at recombinant human MMP-1 and over 10000 nM on recombinant human MMP-13 (setting [1]).

In the case of `C[C@H](CS)NS(=O)(=O)c1ccc(N=Nc2ccccc2)cc1` [Example 89, N-(2-mercapto-1R-methylethyl)-4-phenylazobenzenesulfonamide], the IC50 is over 10 µM on recombinant human MMP-1 and 90 nM on recombinant human MMP-13 (setting [1]).

In the case of `C[C@H](CS)N(CCN1CCCCC1)S(=O)(=O)c1ccc(Sc2ccccc2)cc1` [Example 92D, N-(2-Mercapto-1R-methylethyl)-N-[2-(1-piperidino)ethyl]-4-(thiophenyl)benzenesulfonamide Hydrochloride], the half-maximal inhibitory concentration (IC50) on recombinant human MMP-1 is 6 µM; at recombinant human MMP-13 (setting [1]), 0.7 nM.

`NC(=O)[C@H](CS)NS(=O)(=O)c1ccc(I)cc1` [Example 95, N-(4-Iodophenyl)sulfonyl-L-cysteine-NH2]: the IC50 on recombinant human MMP-1 was determined as 0.8 µM; on recombinant human MMP-13 (setting [1]), 20 nM.

As for `CCCCCc1ccc(S(=O)(=O)N[C@@H](CS)C(N)=O)cc1` [Example 96, N-[4-(n-Pentyl)-phenyl]sulfonyl-L-cysteine-NH2], the IC50 at recombinant human MMP-1 was over 10 µM; on recombinant human MMP-13 (setting [1]) it was 17 nM.

`CCCCN([C@H](C)CS)S(=O)(=O)c1ccc(OC)cc1` [Example 99]: the figures for the IC50 at recombinant human MMP-1 and at recombinant human MMP-13 (setting [1]) were 0.9 µM and 31.3 nM, respectively.

For the compound `COc1ccc(S(=O)(=O)N[C@H](C)CS)cc1OC` [Example 100], the IC50 is over 10 µM at recombinant human MMP-1 and over 10000 nM on recombinant human MMP-13 (setting [1]).

For the origin of these results see patent US6747027B1, “Thiol sulfonamide metalloprotease inhibitors” (Pharmacia Corporation, priority 1996, dated 2004).
